Source: ChEMBL document CHEMBL1201862, “PubChem BioAssay data set” (2004)
Active and inactive are the calls of the source.

Tests used:
[1] = target: Nonstructural protein 1 (Influenza A virus, UniProt Q194T2); format: functional, Influenza A virus (A/California/07/2009(H1N1))
[2] = target: Botulinum neurotoxin type A (Clostridium botulinum (strain Hall / ATCC 3502 / NCTC 13319 / Type A), UniProt P0DPI1); assay: High-throughput multiplex microsphere dose response for inhibitors of toxin protease, specifically Botulinum neurotoxin light chain A protease, compounds from Cherry Pick 02.; format: functional; conditions: read-out: EC50_MICROM
Botulinum neurotoxin type A, sequence (P0DPI1 2-448 limits assumed): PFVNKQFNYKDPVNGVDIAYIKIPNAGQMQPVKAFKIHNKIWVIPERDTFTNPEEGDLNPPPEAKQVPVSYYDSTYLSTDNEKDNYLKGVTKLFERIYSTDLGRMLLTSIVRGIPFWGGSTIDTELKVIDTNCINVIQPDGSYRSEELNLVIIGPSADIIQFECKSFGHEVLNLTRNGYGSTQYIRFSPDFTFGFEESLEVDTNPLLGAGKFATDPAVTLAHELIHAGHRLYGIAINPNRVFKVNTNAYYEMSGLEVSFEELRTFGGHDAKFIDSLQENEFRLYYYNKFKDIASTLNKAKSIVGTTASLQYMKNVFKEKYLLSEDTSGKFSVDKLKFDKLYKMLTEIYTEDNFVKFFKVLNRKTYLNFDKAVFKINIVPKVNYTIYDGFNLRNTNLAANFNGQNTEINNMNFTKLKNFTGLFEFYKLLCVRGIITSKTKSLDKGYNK

[3] = target: Lethal factor (Bacillus anthracis, UniProt P15917); assay: High-throughput multiplex microsphere dose response for inhibitors of toxin protease, specifically Lethal Factor protease, compounds from Cherry Pick 02.; format: functional; conditions: read-out: EC50_MICROM
Lethal factor, sequence (P15917 whole entry): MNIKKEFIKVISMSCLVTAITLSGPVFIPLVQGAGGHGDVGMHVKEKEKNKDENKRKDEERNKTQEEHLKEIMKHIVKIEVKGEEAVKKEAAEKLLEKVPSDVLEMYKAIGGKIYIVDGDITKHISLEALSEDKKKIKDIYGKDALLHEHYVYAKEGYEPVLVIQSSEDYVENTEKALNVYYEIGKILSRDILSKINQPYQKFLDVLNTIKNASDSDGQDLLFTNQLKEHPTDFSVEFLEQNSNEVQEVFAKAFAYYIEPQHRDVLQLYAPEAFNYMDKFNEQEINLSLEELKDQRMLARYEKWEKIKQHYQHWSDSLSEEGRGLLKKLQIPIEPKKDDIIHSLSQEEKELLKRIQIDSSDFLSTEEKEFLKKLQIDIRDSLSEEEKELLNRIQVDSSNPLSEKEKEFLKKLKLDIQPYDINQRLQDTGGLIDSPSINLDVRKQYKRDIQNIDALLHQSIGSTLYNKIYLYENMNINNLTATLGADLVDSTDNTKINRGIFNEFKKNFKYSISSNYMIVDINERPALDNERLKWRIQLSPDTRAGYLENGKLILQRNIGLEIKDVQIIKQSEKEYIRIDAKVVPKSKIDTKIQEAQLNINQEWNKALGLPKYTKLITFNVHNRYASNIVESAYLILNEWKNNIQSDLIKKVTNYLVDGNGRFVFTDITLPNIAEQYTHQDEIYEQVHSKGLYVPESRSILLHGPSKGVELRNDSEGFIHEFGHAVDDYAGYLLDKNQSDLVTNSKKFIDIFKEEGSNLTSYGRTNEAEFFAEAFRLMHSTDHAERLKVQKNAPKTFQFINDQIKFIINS

[4] = target: Botulinum neurotoxin type F (Clostridium botulinum, UniProt P30996); assay: High-throughput multiplex microsphere dose response for inhibitors of toxin protease, specifically Botulinum neurotoxin light chain F protease, compounds from Cherry Pick 02.; format: functional; conditions: read-out: EC50_MICROM
Botulinum neurotoxin type F, sequence (P30996 1-436 limits assumed): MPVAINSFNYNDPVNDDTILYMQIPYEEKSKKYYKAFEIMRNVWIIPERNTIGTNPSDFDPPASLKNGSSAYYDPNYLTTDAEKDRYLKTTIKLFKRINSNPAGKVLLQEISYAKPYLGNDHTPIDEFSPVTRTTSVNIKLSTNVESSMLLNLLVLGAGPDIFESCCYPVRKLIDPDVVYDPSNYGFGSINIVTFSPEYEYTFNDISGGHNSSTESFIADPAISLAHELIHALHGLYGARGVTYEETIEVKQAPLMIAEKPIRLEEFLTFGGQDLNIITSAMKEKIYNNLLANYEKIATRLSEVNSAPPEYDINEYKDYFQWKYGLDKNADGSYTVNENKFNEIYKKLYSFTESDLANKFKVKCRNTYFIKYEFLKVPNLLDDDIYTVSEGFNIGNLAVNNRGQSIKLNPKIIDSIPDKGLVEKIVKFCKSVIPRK

[5] = viability loss in HeLa cells – cytotoxicity control for MgcRacGAP inhibitor project, dose response (AID 624300); format: functional
[6] = target: T1, Rac GTPase-activating protein 1 (Homo sapiens, UniProt Q9H0H5); assay: blockers of MgcRacGAP-driven Rac1 GTP hydrolysis – biochemical, ADP Hunter fluorescence, primary and confirmatory, confirmation (AID 624330); format: functional
T1 sequence (Q9H0H5 whole entry): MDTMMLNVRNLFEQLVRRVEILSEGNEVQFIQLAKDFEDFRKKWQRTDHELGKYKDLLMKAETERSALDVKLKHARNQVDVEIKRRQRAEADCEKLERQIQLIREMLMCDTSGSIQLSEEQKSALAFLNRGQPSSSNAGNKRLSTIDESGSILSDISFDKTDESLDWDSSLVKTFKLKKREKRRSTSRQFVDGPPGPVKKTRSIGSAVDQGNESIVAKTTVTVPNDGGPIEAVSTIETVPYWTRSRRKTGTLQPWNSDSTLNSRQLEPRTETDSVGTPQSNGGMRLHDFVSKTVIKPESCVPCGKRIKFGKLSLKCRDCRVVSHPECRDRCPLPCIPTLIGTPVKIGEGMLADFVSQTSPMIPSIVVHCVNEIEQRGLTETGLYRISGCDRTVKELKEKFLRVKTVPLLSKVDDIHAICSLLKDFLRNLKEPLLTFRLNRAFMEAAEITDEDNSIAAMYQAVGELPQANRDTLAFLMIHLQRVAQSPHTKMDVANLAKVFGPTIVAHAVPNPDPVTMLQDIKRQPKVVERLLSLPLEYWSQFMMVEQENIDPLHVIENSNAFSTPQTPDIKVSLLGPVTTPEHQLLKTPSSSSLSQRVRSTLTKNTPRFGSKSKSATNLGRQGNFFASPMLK

[7] = target: T2, Histone-lysine N-methyltransferase NSD2 (Homo sapiens, UniProt O96028); format: biochemical
T2 sequence (O96028 whole entry): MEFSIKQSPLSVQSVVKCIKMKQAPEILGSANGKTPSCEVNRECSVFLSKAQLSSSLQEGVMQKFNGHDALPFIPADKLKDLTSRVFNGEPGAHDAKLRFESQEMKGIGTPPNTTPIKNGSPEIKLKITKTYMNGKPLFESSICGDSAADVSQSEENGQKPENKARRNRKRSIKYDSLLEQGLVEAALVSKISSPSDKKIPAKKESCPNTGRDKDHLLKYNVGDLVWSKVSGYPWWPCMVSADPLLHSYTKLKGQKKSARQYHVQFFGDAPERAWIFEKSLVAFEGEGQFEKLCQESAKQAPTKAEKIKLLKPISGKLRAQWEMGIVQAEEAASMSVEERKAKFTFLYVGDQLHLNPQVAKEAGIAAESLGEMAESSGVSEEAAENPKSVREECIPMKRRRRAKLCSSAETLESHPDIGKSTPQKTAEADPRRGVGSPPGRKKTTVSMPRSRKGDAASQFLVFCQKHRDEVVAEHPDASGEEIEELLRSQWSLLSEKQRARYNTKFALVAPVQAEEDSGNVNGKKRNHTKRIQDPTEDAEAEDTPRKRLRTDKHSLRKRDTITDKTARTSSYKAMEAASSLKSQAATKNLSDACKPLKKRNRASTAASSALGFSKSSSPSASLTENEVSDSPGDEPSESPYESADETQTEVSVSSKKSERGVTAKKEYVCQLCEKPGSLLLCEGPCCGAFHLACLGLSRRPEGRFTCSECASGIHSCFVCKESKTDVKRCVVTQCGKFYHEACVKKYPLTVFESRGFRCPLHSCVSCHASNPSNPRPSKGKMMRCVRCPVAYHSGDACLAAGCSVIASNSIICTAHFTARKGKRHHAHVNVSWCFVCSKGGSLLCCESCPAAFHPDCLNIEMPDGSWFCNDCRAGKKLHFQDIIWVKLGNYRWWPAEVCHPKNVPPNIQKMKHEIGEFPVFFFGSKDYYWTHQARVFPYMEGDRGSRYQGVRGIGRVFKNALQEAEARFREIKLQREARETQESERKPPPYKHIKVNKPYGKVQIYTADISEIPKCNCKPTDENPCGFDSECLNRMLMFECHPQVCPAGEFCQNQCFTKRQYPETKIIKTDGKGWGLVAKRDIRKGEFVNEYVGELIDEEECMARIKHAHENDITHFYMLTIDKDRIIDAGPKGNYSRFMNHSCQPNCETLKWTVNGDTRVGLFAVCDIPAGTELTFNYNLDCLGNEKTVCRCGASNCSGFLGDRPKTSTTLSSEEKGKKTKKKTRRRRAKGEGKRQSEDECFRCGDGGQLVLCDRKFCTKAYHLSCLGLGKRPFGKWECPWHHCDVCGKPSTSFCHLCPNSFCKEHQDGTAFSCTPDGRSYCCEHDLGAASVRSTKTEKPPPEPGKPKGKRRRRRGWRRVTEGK

[8] = target: Serine/threonine-protein kinase pim-1 (Homo sapiens, UniProt P11309); format: functional
Serine/threonine-protein kinase pim-1, sequence (P11309 whole entry): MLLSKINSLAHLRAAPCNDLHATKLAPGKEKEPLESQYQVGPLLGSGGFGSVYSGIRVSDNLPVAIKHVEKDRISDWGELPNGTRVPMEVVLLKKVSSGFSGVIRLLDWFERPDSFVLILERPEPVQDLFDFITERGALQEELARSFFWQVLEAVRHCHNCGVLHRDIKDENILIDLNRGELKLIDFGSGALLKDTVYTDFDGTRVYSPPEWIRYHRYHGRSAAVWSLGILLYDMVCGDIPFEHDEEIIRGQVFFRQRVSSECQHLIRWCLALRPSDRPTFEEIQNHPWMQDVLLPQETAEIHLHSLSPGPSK

[9] = target: Cell division cycle 7-related protein kinase (Homo sapiens, UniProt O00311); format: functional;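 note: value obtained from a kinome-wide kinase panel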
[10] = target: Homeodomain-interacting protein kinase 2 (Homo sapiens, UniProt Q9H2X6); format: functional;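 note: measured within a kinome-wide kinase profiling panel, HIPK2 being one panel member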
Homeodomain-interacting protein kinase 2, sequence (Q9H2X6 whole entry): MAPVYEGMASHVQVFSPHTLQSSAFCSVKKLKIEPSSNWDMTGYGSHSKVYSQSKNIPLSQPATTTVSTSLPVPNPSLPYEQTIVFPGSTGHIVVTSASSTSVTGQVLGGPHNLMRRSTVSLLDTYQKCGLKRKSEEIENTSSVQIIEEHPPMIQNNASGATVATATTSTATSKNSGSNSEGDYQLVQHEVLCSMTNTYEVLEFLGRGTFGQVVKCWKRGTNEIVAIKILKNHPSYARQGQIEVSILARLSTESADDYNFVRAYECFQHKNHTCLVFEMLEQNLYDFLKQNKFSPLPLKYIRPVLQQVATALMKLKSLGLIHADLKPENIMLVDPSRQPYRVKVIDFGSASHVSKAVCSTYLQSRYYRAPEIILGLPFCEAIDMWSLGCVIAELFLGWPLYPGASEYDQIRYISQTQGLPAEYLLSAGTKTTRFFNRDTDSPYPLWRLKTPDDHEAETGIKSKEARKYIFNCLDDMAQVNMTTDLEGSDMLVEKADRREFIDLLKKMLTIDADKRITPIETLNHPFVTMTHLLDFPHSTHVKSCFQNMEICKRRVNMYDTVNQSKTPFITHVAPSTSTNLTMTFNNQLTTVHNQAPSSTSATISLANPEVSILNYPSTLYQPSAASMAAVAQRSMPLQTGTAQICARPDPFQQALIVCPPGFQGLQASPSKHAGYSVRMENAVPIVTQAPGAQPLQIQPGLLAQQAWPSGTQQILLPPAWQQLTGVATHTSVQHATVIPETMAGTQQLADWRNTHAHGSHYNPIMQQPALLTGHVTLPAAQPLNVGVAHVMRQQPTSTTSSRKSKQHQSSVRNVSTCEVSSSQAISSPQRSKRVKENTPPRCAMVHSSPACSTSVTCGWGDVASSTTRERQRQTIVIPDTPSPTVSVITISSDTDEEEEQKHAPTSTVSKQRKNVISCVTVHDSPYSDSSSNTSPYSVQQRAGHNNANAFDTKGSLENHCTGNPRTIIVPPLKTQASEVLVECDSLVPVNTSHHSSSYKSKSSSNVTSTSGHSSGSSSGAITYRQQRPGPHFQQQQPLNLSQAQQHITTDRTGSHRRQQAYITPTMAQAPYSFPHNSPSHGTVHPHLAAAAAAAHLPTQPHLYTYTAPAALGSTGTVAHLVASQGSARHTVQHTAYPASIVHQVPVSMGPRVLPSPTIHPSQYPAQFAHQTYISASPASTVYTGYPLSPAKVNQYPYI

[11] = target: Interleukin-1 receptor-associated kinase 4 (Homo sapiens, UniProt Q9NWZ3); format: functional
Interleukin-1 receptor-associated kinase 4, sequence (Q9NWZ3 whole entry): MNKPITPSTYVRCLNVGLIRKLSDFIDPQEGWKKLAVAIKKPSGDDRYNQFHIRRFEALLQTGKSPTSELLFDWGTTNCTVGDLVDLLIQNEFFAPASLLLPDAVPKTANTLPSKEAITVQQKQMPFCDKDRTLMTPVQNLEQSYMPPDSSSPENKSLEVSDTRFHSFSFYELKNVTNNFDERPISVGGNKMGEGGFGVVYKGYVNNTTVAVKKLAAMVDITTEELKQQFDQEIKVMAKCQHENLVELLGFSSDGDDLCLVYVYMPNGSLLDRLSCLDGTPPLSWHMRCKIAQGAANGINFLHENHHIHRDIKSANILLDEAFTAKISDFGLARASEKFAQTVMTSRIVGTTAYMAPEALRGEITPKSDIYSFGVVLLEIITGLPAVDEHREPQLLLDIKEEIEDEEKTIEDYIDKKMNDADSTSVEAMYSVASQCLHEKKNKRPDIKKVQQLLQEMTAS

[12] = target: Glycogen synthase kinase-3 beta (Homo sapiens, UniProt P49841); format: functional;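 note: value comes from a broad kinome profiling panel, with GSK3B as the panel member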
Glycogen synthase kinase-3 beta, sequence (P49841 whole entry): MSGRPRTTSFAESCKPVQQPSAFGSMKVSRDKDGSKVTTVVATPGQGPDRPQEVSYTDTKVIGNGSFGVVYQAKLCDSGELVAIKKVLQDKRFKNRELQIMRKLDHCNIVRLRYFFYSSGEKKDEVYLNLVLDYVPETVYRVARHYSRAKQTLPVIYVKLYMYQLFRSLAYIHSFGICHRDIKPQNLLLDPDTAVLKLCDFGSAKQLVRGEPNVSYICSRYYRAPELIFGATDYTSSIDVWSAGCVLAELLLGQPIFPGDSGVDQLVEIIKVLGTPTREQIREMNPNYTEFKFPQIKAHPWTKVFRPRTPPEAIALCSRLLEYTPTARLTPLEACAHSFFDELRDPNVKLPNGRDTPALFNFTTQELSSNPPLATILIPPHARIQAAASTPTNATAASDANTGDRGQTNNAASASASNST

[13] = target: cAMP-dependent protein kinase catalytic subunit alpha (Homo sapiens, UniProt P17612); format: functional
[14] = target: Dual specificity protein kinase CLK4 (Homo sapiens, UniProt Q9HAZ1); format: functional
Dual specificity protein kinase CLK4, sequence (Q9HAZ1 whole entry): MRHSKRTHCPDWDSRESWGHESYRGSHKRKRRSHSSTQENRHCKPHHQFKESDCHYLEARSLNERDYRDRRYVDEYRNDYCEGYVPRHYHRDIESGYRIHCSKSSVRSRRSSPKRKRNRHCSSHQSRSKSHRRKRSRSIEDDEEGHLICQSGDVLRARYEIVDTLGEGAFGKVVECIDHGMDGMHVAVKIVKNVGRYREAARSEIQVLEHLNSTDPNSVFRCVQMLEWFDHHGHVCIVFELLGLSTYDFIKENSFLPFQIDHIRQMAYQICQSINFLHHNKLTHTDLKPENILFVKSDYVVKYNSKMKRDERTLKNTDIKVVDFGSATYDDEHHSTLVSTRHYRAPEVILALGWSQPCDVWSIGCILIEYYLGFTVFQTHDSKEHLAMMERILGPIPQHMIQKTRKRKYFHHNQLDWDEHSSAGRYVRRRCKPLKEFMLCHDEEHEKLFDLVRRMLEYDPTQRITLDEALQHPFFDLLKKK

[15] = target: Mitogen-activated protein kinase kinase kinase kinase 4 (Homo sapiens, UniProt O95819); format: functional

Nonstructural protein 1, sequence (Q194T2 whole entry): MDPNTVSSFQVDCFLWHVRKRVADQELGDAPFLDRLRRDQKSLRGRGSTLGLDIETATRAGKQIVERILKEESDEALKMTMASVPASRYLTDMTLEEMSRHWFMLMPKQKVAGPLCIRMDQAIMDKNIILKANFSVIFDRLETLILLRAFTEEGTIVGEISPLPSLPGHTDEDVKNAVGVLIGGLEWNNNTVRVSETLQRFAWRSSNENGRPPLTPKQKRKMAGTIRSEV

| Structure (SMILES) | IC50 [1] | EC50 [2] | EC50 [3] | EC50 [4] | CC50 [5] | IC50 [6] | AC50 [7] | Ki [8] | Ki [9] | Ki [10] | Ki [11] | Ki [12] | Ki [13] | Ki [14] | Ki [15] |
| --- | --- | --- | --- | --- | --- | --- | --- | --- | --- | --- | --- | --- | --- | --- | --- |
| CN(C)c1ccc(/C=C2/C[N+](C)(C)C/C(=C/c3ccc(N(C)C)cc3)C2=O)cc1 | 6590 nM (active) | 1600 nM (active) | 600 nM (active) | > 20000 nM (inactive) | 100000 nM (active) | 82900 nM (active) | 11900 nM (active) |  |  |  |  |  |  |  |  |
| COCCN(CCOC)c1cc(-c2c[nH]c3ncccc23)cc(Cl)n1 |  |  |  |  |  |  |  | 1260 nM (active) | 10 nM (active) | 251 nM (active) | 2510 nM (active) | 1000 nM (active) | 501 nM (active) | 10 nM (active) | 20 nM (active) |
